± gives the standard deviation of the averaged measurements.
What was measured:
Assay in all cases: LOEC (log10 uM (lowest observed effect concentration))
[1] = compound: C=CC(=O)OCC(F)(F)C(F)(F)C(F)(F)COC(=O)C=C [1H,1H,5H,5H-Perfluoro-1,5-pentanediol diacrylate]
Description: (§1)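 BioMAP Diversity Plus panel in human primary cell co-cultures, 4 concentrations in duplicate blinded samples. Responses are log10 fold change versus DMSO control, processed with tcpl v2.1.0. A hit is called when responses at any concentration exceed the cutoff (the larger of 3*bmad or log10(1.2)); the lowest observed effect concentration (modl_ga, log10 uM) is reported for hits.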

[2] = compound: O=C(O)C(F)(F)C(F)(F)C(F)(F)C(F)(F)C(F)(F)C(F)(F)C(F)(F)C(F)(F)C(F)(F)C(F)F [11-H-Perfluoroundecanoic acid]
Description: as §1

[3] = compound: O=S(=O)(Cl)C(F)(F)C(F)(F)C(F)(F)C(F)(F)C(F)(F)C(F)(F)C(F)(F)C(F)(F)F [Perfluoro-1-octanesulfonyl chloride]
Description: as §1

[4] = compound: NS(=O)(=O)C(F)(F)C(F)(F)C(F)(F)C(F)(F)C(F)(F)C(F)(F)F [Perfluorohexanesulfonamide]
Description: as §1

[5] = compound: FC(F)(F)C(F)(F)C(F)(F)C(F)(F)C(F)(F)C(F)(F)C(F)(F)I [1-Iodopentadecafluoroheptane]
Description: as §1

[6] = compound: COC(=O)C(F)(F)C(F)(F)OC(F)(C(F)(F)F)C(F)(F)OC(F)=C(F)F [Methyl perfluoro(3-(1-ethenyloxypropan-2-yloxy)propanoate)]
Description: as §1

Row | Test System | LOEC (log10 uM) [1] | LOEC (log10 uM) [2] | LOEC (log10 uM) [3] | LOEC (log10 uM) [4] | LOEC (log10 uM) [5] | LOEC (log10 uM) [6]
1 | BE3C MIG down | 1.78 | 1.3 | 1.78 |  |  | 
2 | hDFCGF Proliferation down | 0.301 | 0.845 |  | 1.78 |  | 
3 | LPS Thrombomodulin up | 1.3 | 1.31 ± 0.66 |  |  |  | 
4 | BE3C EGFR down |  | 1.3 | 1.78 |  |  | 
5 | MyoF CollagenIV up |  | 1.07 ± 0.32 | 1.78 | 1.3 | 0.845 | 
6 | SAg Eselectin down | 0.845 | 1.78 |  | 1.78 |  | 
7 | hDFCGF PAI1 down | 0.845 | 1.78 |  |  |  | 
8 | BT Bcell Proliferation up |  |  | 1.78 |  |  | 
9 | MyoF CollagenI down | 1.3 | 1.3 |  |  | 0.845 | 
10 | KF3CT IP10 down | 1.3 | 1.3 | 1.78 | 1.78 |  | 
11 | SAg SRB down | 1.3 | 1.78 | 1.78 |  |  | 
12 | MyoF SRB down | 1.3 | 1.3 |  | 1.78 | 0.845 | 
13 | KF3CT PAI1 down | 1.3 | 1.3 | 1.3 |  |  | 
14 | IMphg MCSF down |  |  |  | 1.07 ± 0.32 |  | 
15 | BE3C ICAM1 down | 1.3 | 1.3 | 1.78 |  |  | 
16 | BE3C IP10 down | 1.54 ± 0.34 | 0.845 | 1.3 | 1.54 ± 0.34 |  | 
17 | hDFCGF TIMP2 down |  |  |  | 1.78 |  | 
18 | BE3C uPA down | 1.78 | 1.3 | 1.78 |  |  | 
19 | IMphg IL8 up |  |  |  | 1.78 |  | 0.301
20 | BF4T ICAM1 down | 1.07 ± 0.32 | 1.3 | 1.78 |  |  | 
21 | BE3C PAI1 down |  | 1.3 | 1.78 | 1.54 ± 0.34 |  | 
22 | LPS VCAM1 down | 1.07 ± 0.32 | 1.78 |  | 1.78 |  | 
23 | IMphg SRB down |  | 1.78 |  |  |  | 
24 | hDFCGF CollagenIII down | 0.573 ± 0.39 | 0.845 |  |  |  | 
25 | IMphg ESelectin down | 1.3 |  |  | 1.78 |  | 
26 | LPS SRB down | 1.3 | 1.78 |  |  |  | 

Row | Test System | LOEC (log10 uM) [1] | LOEC (log10 uM) [2] | LOEC (log10 uM) [3] | LOEC (log10 uM) [4] | LOEC (log10 uM) [5] | LOEC (log10 uM) [6]
27 | KF3CT MIG down | 1.3 | 1.78 |  |  |  | 
28 | SAg CD69 down | 0.845 | 1.78 |  | 1.78 |  | 
29 | 3C IL8 up |  |  | 1.78 |  |  | 
30 | LPS PGE2 up |  |  |  | 1.54 ± 0.34 |  | 
31 | hDFCGF VCAM1 down | 0.301 | 0.801 ± 0.71 |  |  |  | 0.845
32 | BF4T Keratin818 down | 1.78 | 1.78 |  |  |  | 
33 | SAg IL8 down | 0.845 | 1.78 |  | 1.78 |  | 
34 | BF4T PAI1 down | 1.3 | 0.801 ± 0.71 | 1.78 |  |  | 
35 | KF3CT MCP1 down | 1.3 | 1.3 |  |  |  | 
36 | LPS Eselectin down | 1.3 | 1.78 |  |  |  | 
37 | SAg MCP1 down | 0.845 | 1.78 |  |  |  | 
38 | BF4T tPA down | 1.3 | 0.845 | 1.54 ± 0.34 |  |  | 
39 | MyoF MMP1 up | 0.845 |  |  |  | 0.573 ± 0.39 | 
40 | BE3C IL8 down | 1.3 |  | 1.78 | 1.3 |  | 
41 | BF4T Eotaxin3 down | 1.78 | 0.801 ± 0.71 | 1.78 |  |  | 
42 | LPS CD40 down | 0.845 | 1.78 |  | 1.78 |  | 
43 | LPS PGE2 down | 1.3 | 1.78 | 1.78 |  |  | 
44 | BF4T CD90 down |  | 1.54 ± 0.34 |  |  |  | 
45 | BF4T uPA down | 1.78 | 1.78 | 1.78 |  |  | 
46 | IMphg MCP1 down | 1.3 | 1.78 |  | 1.78 |  | 
47 | LPS MCP1 down | 1.3 | 1.78 |  |  |  | 
48 | KF3CT SRB down | 1.3 | 1.78 |  |  |  | 
49 | 3C Thrombomodulin up | 1.3 | 1.78 | 1.78 |  |  | 
50 | 3C Proliferation down | 0.301 | 1.78 |  | 1.78 |  | 
51 | BE3C IL1a down | 1.3 | 1.3 | 1.78 |  |  | 
